Measured values from the NIST ThermoML archive (doi:10.1016/j.fluid.2014.10.015).

Settings: for mass density / viscosity: Liquid; for mass density: Vibrating tube method; for surface tension liquid-gas: Pendant drop shape; for viscosity: Concentric cylinders viscometry

CC(=O)[O-].CCCCn1cc[n+](C)c1 [1-butyl-3-methylimidazolium acetate]
Settings	mass density [kg/m3]	viscosity [mPa·s]
313.16 K, 109981 kPa	1083.53	–
313.17 K, 5238 kPa	1045.49	–
313.18 K, 1226 kPa	1043.82	–
333.13 K, 101.33 kPa	1031.21	–
333.14 K, 9567 kPa	1035.37	–
333.15 K, 101 kPa	1031.21	–
333.15 K, 101.33 kPa	–	53.5
333.15 K, 628 kPa	1031.45	–
333.15 K, 4971 kPa	1033.37	–
333.15 K, 20116 kPa	1039.9	–
333.15 K, 29979 kPa	1044.01	–
333.15 K, 49981 kPa	1052.04	–
333.15 K, 59681 kPa	1055.77	–
333.15 K, 70024 kPa	1059.64	–
333.15 K, 79610 kPa	1063.12	–
333.16 K, 39561 kPa	1047.91	–
333.16 K, 89976 kPa	1066.77	–
333.17 K, 99080 kPa	1069.88	–
333.17 K, 109991 kPa	1073.48	–
333.17 K, 120185 kPa	1076.74	–
333.17 K, 129974 kPa	1079.75	–
333.17 K, 139981 kPa	1082.73	–
343.16 K, 101.33 kPa	1025.2	–
353.12 K, 1410 kPa	1019.9	–
353.12 K, 139714 kPa	1072.82	–
353.13 K, 120068 kPa	1066.76	–
353.13 K, 130015 kPa	1069.89	–
353.14 K, 4959 kPa	1021.56	–
353.14 K, 99015 kPa	1059.73	–
353.14 K, 109983 kPa	1063.46	–
353.15 K, 101 kPa	1019.28	–
353.15 K, 101.33 kPa	1019.28	24.4
353.15 K, 60022 kPa	1045.25	–
353.15 K, 70021 kPa	1049.15	–
353.15 K, 80038 kPa	1052.92	–
353.15 K, 90002 kPa	1056.56	–
353.16 K, 9951 kPa	1023.86	–
353.16 K, 49992 kPa	1041.22	–
353.17 K, 20183 kPa	1028.49	–
353.17 K, 29998 kPa	1032.8	–
353.18 K, 39534 kPa	1036.88	–
373.14 K, 19875 kPa	1017.03	–
373.14 K, 139805 kPa	1063.23	–
373.15 K, 101 kPa	1007.58	–

Settings	surface tension liquid-gas [mN/m]
313.2 K	36.88
318.2 K	36.63
323.2 K	36.42
328.2 K	36.2
